Data from ChEMBL document CHEMBL1208728, “Design, synthesis, and structure-activity relationships of pyrazole derivatives as potential FabH inhibitors” (Bioorg Med Chem Lett, 2010).
≈ marks a conversion by molar mass, not a printed value.

Legend:
Type in all cases: functional
Bacillus subtilis = test: Antimicrobial activity against Bacillus subtilis ATCC 6633 by MTT assay
Staphylococcus aureus = test: Antimicrobial activity against Staphylococcus aureus ATCC 6538 by MTT assay
Enterococcus faecalis = test: Antimicrobial activity against Streptococcus faecalis ATCC 9790 by MTT assay
Pseudomonas aeruginosa = test: Antimicrobial activity against Pseudomonas aeruginosa ATCC 13525 by MTT assay
Escherichia coli = test: Antimicrobial activity against Escherichia coli ATCC 35218 by MTT assay
Enterobacter cloacae = test: Antimicrobial activity against Enterobacter cloacae ATCC 13047 by MTT assay

Structure (SMILES)	MIC (Bacillus subtilis) [µg/mL]	MIC (Staphylococcus aureus) [µg/mL]	MIC (Enterococcus faecalis) [µg/mL]	MIC (Pseudomonas aeruginosa) [µg/mL]	MIC (Escherichia coli) [µg/mL]	MIC (Enterobacter cloacae) [µg/mL]
COc1ccc(C2CC(c3ccc(Br)cc3)=NN2C(C)=O)cc1 (centres undefined)	25 (≈ 67 µM)	12.5 (≈ 33.5 µM)	6.25 (≈ 16.7 µM)	1.56 (≈ 4.18 µM)	50 (≈ 134 µM)	3.12 (≈ 8.37 µM)
CC(=O)N1N=C(c2ccc(Br)cc2)CC1c1ccccc1Cl (centres undefined)	25 (≈ 66.2 µM)	25 (≈ 66.2 µM)	50 (≈ 132 µM)	6.25 (≈ 16.5 µM)	12.5 (≈ 33.1 µM)	3.12 (≈ 8.27 µM)
CC(=O)N1N=C(c2ccc(Br)cc2)CC1c1ccccc1 (centres undefined)	50 (≈ 146 µM)	6.25 (≈ 18.2 µM)	25 (≈ 72.8 µM)	12.5 (≈ 36.4 µM)	12.5 (≈ 36.4 µM)	> 50
COc1cc(OC)cc(C2CC(c3ccc(Br)cc3)=NN2C(C)=O)c1 (centres undefined)	50 (≈ 124 µM)	6.25 (≈ 15.5 µM)	25 (≈ 62 µM)	3.12 (≈ 7.75 µM)	50 (≈ 124 µM)	12.5 (≈ 31 µM)
CC(=O)N1N=C(c2ccc(Cl)cc2)CC1c1ccc(Cl)cc1 (centres undefined)	12.5 (≈ 37.5 µM)	25 (≈ 75 µM)	6.25 (≈ 18.8 µM)	6.25 (≈ 18.8 µM)	12.5 (≈ 37.5 µM)	25 (≈ 75 µM)
CC(=O)N1N=C(c2ccc(Cl)cc2)CC1c1ccc(Br)cc1 (centres undefined)	6.25 (≈ 16.5 µM)	25 (≈ 66.2 µM)	6.25 (≈ 16.5 µM)	> 50	12.5 (≈ 33.1 µM)	> 50
CC(=O)N1N=C(c2ccc(Cl)cc2)CC1c1ccc(C)cc1 (centres undefined)	6.25 (≈ 20 µM)	12.5 (≈ 40 µM)	25 (≈ 79.9 µM)	12.5 (≈ 40 µM)	12.5 (≈ 40 µM)	12.5 (≈ 40 µM)
COc1ccc(C2CC(c3ccc(Cl)cc3)=NN2C(C)=O)cc1 (centres undefined)	12.5 (≈ 38 µM)	> 50	25 (≈ 76 µM)	25 (≈ 76 µM)	25 (≈ 76 µM)	> 50
CC(=O)N1N=C(c2ccc(Cl)cc2)CC1c1ccccc1Cl (centres undefined)	6.25 (≈ 18.8 µM)	25 (≈ 75 µM)	50 (≈ 150 µM)	12.5 (≈ 37.5 µM)	12.5 (≈ 37.5 µM)	12.5 (≈ 37.5 µM)
COc1cc(OC)cc(C2CC(c3ccc(Cl)cc3)=NN2C(C)=O)c1 (centres undefined)	6.25 (≈ 17.4 µM)	6.25 (≈ 17.4 µM)	50 (≈ 139 µM)	25 (≈ 69.7 µM)	12.5 (≈ 34.8 µM)	> 50
COc1ccc(C2=NN(C(C)=O)C(c3cc(OC)cc(OC)c3)C2)cc1 (centres undefined)	6.25 (≈ 17.6 µM)	12.5 (≈ 35.3 µM)	50 (≈ 141 µM)	12.5 (≈ 35.3 µM)	12.5 (≈ 35.3 µM)	6.25 (≈ 17.6 µM)
CC(=O)N1N=C(c2ccc(Br)cc2)CC1c1ccc(F)cc1 (centres undefined)	25 (≈ 69.2 µM)	1.56 (≈ 4.32 µM)	1.56 (≈ 4.32 µM)	3.12 (≈ 8.65 µM)	12.5 (≈ 34.6 µM)	12.5 (≈ 34.6 µM)
CC(=O)N1N=C(c2ccc(Br)cc2)CC1c1ccc(Cl)cc1 (centres undefined)	25 (≈ 66.2 µM)	3.12 (≈ 8.27 µM)	6.25 (≈ 16.5 µM)	3.12 (≈ 8.27 µM)	25 (≈ 66.2 µM)	12.5 (≈ 33.1 µM)
CC(=O)N1N=C(c2ccccc2)CC1c1ccccc1 (centres undefined)	25 (≈ 94.6 µM)	25 (≈ 94.6 µM)	12.5 (≈ 47.3 µM)	12.5 (≈ 47.3 µM)	25 (≈ 94.6 µM)	12.5 (≈ 47.3 µM)

Continued, values first:

MIC (Bacillus subtilis) [µg/mL]	MIC (Staphylococcus aureus) [µg/mL]	MIC (Enterococcus faecalis) [µg/mL]	MIC (Pseudomonas aeruginosa) [µg/mL]	MIC (Escherichia coli) [µg/mL]	MIC (Enterobacter cloacae) [µg/mL]	Structure (SMILES)
25 (≈ 83.2 µM)	> 50	50 (≈ 166 µM)	12.5 (≈ 41.6 µM)	50 (≈ 166 µM)	> 50	CC(=O)N1N=C(c2ccccc2F)CC1c1ccc(F)cc1 (centres undefined)
12.5 (≈ 39.5 µM)	> 50	12.5 (≈ 39.5 µM)	12.5 (≈ 39.5 µM)	25 (≈ 78.9 µM)	> 50	CC(=O)N1N=C(c2ccccc2F)CC1c1ccc(Cl)cc1 (centres undefined)
25 (≈ 69.2 µM)	25 (≈ 69.2 µM)	25 (≈ 69.2 µM)	12.5 (≈ 34.6 µM)	25 (≈ 69.2 µM)	12.5 (≈ 34.6 µM)	CC(=O)N1N=C(c2ccccc2F)CC1c1ccc(Br)cc1 (centres undefined)
25 (≈ 84.4 µM)	> 50	25 (≈ 84.4 µM)	> 50	25 (≈ 84.4 µM)	12.5 (≈ 42.2 µM)	CC(=O)N1N=C(c2ccccc2F)CC1c1ccc(C)cc1 (centres undefined)
6.25 (≈ 20 µM)	25 (≈ 80 µM)	12.5 (≈ 40 µM)	25 (≈ 80 µM)	12.5 (≈ 40 µM)	25 (≈ 80 µM)	COc1ccc(C2CC(c3ccccc3F)=NN2C(C)=O)cc1 (centres undefined)
6.25 (≈ 19.7 µM)	12.5 (≈ 39.5 µM)	25 (≈ 78.9 µM)	12.5 (≈ 39.5 µM)	12.5 (≈ 39.5 µM)	12.5 (≈ 39.5 µM)	CC(=O)N1N=C(c2ccccc2F)CC1c1ccccc1Cl (centres undefined)
12.5 (≈ 39.5 µM)	12.5 (≈ 39.5 µM)	1.56 (≈ 4.93 µM)	12.5 (≈ 39.5 µM)	25 (≈ 78.9 µM)	25 (≈ 78.9 µM)	CC(=O)N1N=C(c2ccc(Cl)cc2)CC1c1ccc(F)cc1 (centres undefined)
12.5 (≈ 44.3 µM)	25 (≈ 88.6 µM)	25 (≈ 88.6 µM)	25 (≈ 88.6 µM)	> 50	> 50	CC(=O)N1N=C(c2ccccc2F)CC1c1ccccc1 (centres undefined)
12.5 (≈ 41.8 µM)	> 50	25 (≈ 83.7 µM)	> 50	25 (≈ 83.7 µM)	12.5 (≈ 41.8 µM)	CC(=O)N1N=C(c2ccc(Cl)cc2)CC1c1ccccc1 (centres undefined)
> 50	12.5 (≈ 41.8 µM)	12.5 (≈ 41.8 µM)	12.5 (≈ 41.8 µM)	25 (≈ 83.7 µM)	25 (≈ 83.7 µM)	CC(=O)N1N=C(c2ccccc2)CC1c1ccc(Cl)cc1 (centres undefined)
